“And” between values parts separate entries of the source, which are not always exact repeats. Equal entries are not always repeated. Where two headings read alike, the source gives them in different places. Numbered stars: 1 amine (or outer) side, 2 acyl side, 3 side chain; on linkers, the order of the positions; unused ones are H or OH. Bridge positions count the residues as written; N and C are the ends. Square brackets hold non-standard residues; d marks the D form. Peptide text beside a SMILES is read from it. * marks the point of attachment. ξ: configuration not given here. Orn(4R-OH,5R-OCH2CH2NMe3+) = C[N+](C)(C)CCO[C@@H](N[*:3])[C@H](O)C[C@H](N[*:1])C(=O)[*:2]; pTerphenylCO(4''-OnC5H11) = CCCCCOc1ccc(-c2ccc(-c3ccc(C(=O)*)cc3)cc2)cc1; hTyr(3S-OH,4S-OH) = N[C@H](C(=O)O)[C@H](O)[C@@H](O)c1ccc(O)cc1; X1 = C[C@H]1CN([*:1])C(C(=O)[*:2])C1O; Hyp = O=C(O)[C@@H]1C[C@@H](O)CN1; ξT = CC(O)C(N)C(=O)O
What was measured:
[1] = Single-dose plasma pharmacokinetics in mice, IP; assay type: in vivo; conditions: IP doses of 1, 4, 16 and 64 mg/kg; for half-life: read-out: elimination half-life, range
Method: Pharmacokinetics. […] Plasma from groups of three mice per time point (1, 3, 6, 12, 24, 48, and 72-h) was collected. The plasma drug concentrations were determined by liquid chromatography-tandem mass spectrometry. A noncompartmental model was used in the pharmacokinetic analysis. Elimination half-life was calculated by nonlinear least-squares technique. The area under the concentration-time curve (AUC) was calculated by the trapezoidal rule. Pharmacokinetic exposures for doses not directly measured in the PK study were estimated by linear extrapolation for higher and lower dose levels and by interpolation for dose levels within the dose range studied given the linear PK results. Protein binding was 99.2%.

[2] = test system: C. albicans; test: Neutropenic murine disseminated candidiasis model, PK/PD target determination; assay type: in vivo, Candida albicans
Method: Infection model. A neutropenic, murine, disseminated candidiasis model was used for the treatment studies. The mice were rendered neutropenic (polymorphonuclear cell count, <100/mm3) by injecting 150 mg/kg of cyclophosphamide (Mead Johnson Pharmaceuticals, Evansville, IN) subcutaneously 4 days before infection, 100 mg/kg of cyclophosphamide 1 day before infection, and additional cyclophosphamide doses (100 mg/kg) on Day 2 and Day 4 after infection to ensure neutropenia throughout the 168 h (7 d) study period. Three mice were included in each treatment and control group.
The organisms were subcultured on SDA plates 24 h prior to infection. The inoculum was prepared by placing 3 to 5 colonies into 5 ml of sterile pyrogen-free 0.15 M NaCl warmed to 35° C. The final inoculum was adjusted to a 0.6 transmittance at 530 nm. The fungal count of the inoculum determined by viable counts on SDA was 6.1±0.2 log10 CFU/ml.
Disseminated infection with the Candida strains was achieved by injection of 0.1 ml of the inoculum via the lateral tail vein 2 h prior to the start of antifungal therapy. At the end of the study period, the animals were sacrificed by CO2 asphyxiation. The kidneys of each mouse were aseptically removed and placed in 0.15 M NaCl at 4° C. The kidneys were homogenized and serially diluted 1:10, and the aliquots were plated onto SDA for viable fungal colony counts after incubation for 24 h at 35° C. The lower limit of detection was 100 CFU/ml. The results are expressed as the mean CFU/kidney for three mice.
Treatment efficacy and pharmacodynamic target determination of CD101. Neutropenic mice were infected with one of 10 Candida strains as described above. […] Five dose levels that varied from 0.25 to 64 mg/kg were administered once in a 0.2-ml volume by IP route for the 168 h study period. Due to enhanced effect against single isolate, additional studies at 0.0156 and 0.0625 mg/kg was examined for C. glabrata 5592. Groups of three mice were used for each dosing regimen and control group. At the end of the treatment period (168 h), the mice were euthanized, and their kidneys were immediately processed for CFU determination as described above.
Data analysis. A sigmoid dose-effect (Hill) model was used to measure the in vivo potency of CD101. The efficacy endpoints included the dose level required to produce a 24 h net static effect (no change in organism burden compared to that at the start of therapy) and the dose required to achieve a 1-log10 reduction in colony counts (relative to the burden at the start of therapy), when achieved. The maximum response (Emax) was measured as the difference in the number of CFU/kidney relative to that of the untreated control animals. The doses associated with the stasis and 1-log10 endpoint for each strain was calculated using the equation: log10 D=[log10 (E/(Emax−E))/N]+log10 ED50, where D is the drug dose, E is the control growth in untreated animals, Emax is the maximal effect, Nis the slope of the dose-response relationship, and ED50 is the dose needed to achieve 50% of the maximal effect. The associated AUC/MIC targets were then calculated for each strain. […] The calculations were performed using both total and free drug concentrations. The coefficient of determination (R^2) was used to estimate the variance that might be due to regression with the PK/PD index. Kruskal-Wallis one-way analysis of variance (ANOVA) was used to determine if the differences in PK/PD targets were significant between the species.

[3] = Median of 4 C. albicans strains

## CCCCCOc1ccc(-c2ccc(-c3ccc(C(=O)N[C@H]4C[C@@H](O)[C@@H](OCC[N+](C)(C)C)NC(=O)C5C(O)[C@@H](C)CN5C(=O)[C@H]([C@@H](C)O)NC(=O)[C@H]([C@H](O)[C@@H](O)c5ccc(O)cc5)NC(=O)[C@@H]5C[C@@H](O)CN5C(=O)C(C(C)O)NC4=O)cc3)cc2)cc1 (stereo partly drawn) [CD101] ({pTerphenylCO(4''-OnC5H11)}-[Orn(4R-OH,5R-OCH2CH2NMe3+)][ξT][Hyp][hTyr(3S-OH,4S-OH)]T[X1]; lactam 1-C)
[1]; ICR Swiss/CD1, mouse, read-out: AUC0-, range
  AUC: 93.2 to 40500 µg·h/mL
[1]; ICR Swiss/CD1, mouse, read-out: Peak (Cmax) levels, range
  Cmax: 2600 to 76700 ng/mL
[1]; ICR Swiss/CD1, mouse
  half-life: 28 to 41 h
[1]; mouse
  half-life: 29 to 41 h
[2]; 98-17
  1 log kill 24 h Ave Free drug AUC/MIC: 3.92
  1 log kill free drug AUC0-168 h/MIC: 27.47
  1 log kill total drug AUC0-168 h/MIC: 3433.40
  Stasis 24 h Ave free drug AUC/MIC: 2.19
  Stasis free drug AUC0-168 h/MIC: 15.35
  Stasis total drug AUC0-168 h/MIC: 1918.43
[2]; 98-17, single IP dose, 168 h
  1 log kill dose: 2.73 mg/kg
  Static dose: 1.34 mg/kg
[2]; 98-210
  1 log kill 24 h Ave Free drug AUC/MIC: 6.72
  1 log kill free drug AUC0-168 h/MIC: 47.01
  1 log kill total drug AUC0-168 h/MIC: 5875.95
  Stasis 24 h Ave free drug AUC/MIC: 3.70
  Stasis free drug AUC0-168 h/MIC: 25.93
  Stasis total drug AUC0-168 h/MIC: 3241.65
[2]; 98-210, single IP dose, 168 h
  1 log kill dose: 2.28 mg/kg
  Static dose: 1.06 mg/kg
[2]; 580
  1 log kill 24 h Ave Free drug AUC/MIC: 3.05
  1 log kill free drug AUC0-168 h/MIC: 21.34
  1 log kill total drug AUC0-168 h/MIC: 2667.21
  Stasis 24 h Ave free drug AUC/MIC: 2.02
  Stasis free drug AUC0-168 h/MIC: 14.15
  Stasis total drug AUC0-168 h/MIC: 1769.30
[2]; 580, single IP dose, 168 h
  1 log kill dose: 2.03 mg/kg
  Static dose: 1.20 mg/kg
[2]; K-1
  1 log kill 24 h Ave Free drug AUC/MIC: 6.86
  1 log kill free drug AUC0-168 h/MIC: 48.05
  1 log kill total drug AUC0-168 h/MIC: 6005.95
  Stasis 24 h Ave free drug AUC/MIC: 3.65
  Stasis free drug AUC0-168 h/MIC: 25.58
  Stasis total drug AUC0-168 h/MIC: 3197.16
[2]; K-1, single IP dose, 168 h
  1 log kill dose: 5.26 mg/kg
  Static dose: 2.52 mg/kg
[2]; Mean of 4 C. albicans strains
  1 log kill 24 h Ave Free drug AUC/MIC: 5.14
  1 log kill dose: 3.08 mg/kg
  1 log kill free drug AUC0-168 h/MIC: 35.97
  1 log kill total drug AUC0-168 h/MIC: 4495.63
  Stasis 24 h Ave free drug AUC/MIC: 2.89
  Stasis free drug AUC0-168 h/MIC: 20.25
  Stasis total drug AUC0-168 h/MIC: 2531.64
  Static dose: 1.53 mg/kg
[2]; [3]
  1 log kill 24 h Ave Free drug AUC/MIC: 5.32
  1 log kill dose: 2.51 mg/kg
  1 log kill free drug AUC0-168 h/MIC: 37.24
  1 log kill total drug AUC0-168 h/MIC: 4654.68
  Stasis 24 h Ave free drug AUC/MIC: 2.92
  Stasis free drug AUC0-168 h/MIC: 20.5 and 20.46
  Stasis total drug AUC0-168 h/MIC: 2557.79
  Static dose: 1.27 mg/kg
[2]; a number of strains, kidney burden, 168 h
  kill at high doses: > 2 log10

— patent publication US20240076347A1, “METHODS FOR PREVENTING FUNGAL INFECTIONS” (Cidara Therapeutics, Inc., priority 2016, published 2024)
